According to paper PMC11212140, “Molecular Bidents with Two Electrophilic Warheads as a New Pharmacological Modality” (ACS Central Science, 2024):

Columns and labels:
Experiment in all cases: KiNativ profiling in H3255 cells
Type in all cases: cell-based, human
CK1g3 = test system: T1, CK1g3; conditions: 2.5 µM; Lys2; DVKPENFLIGRPGNK
T1 construct: purchased ActivX Biosciences (KiNativ)
Procedure: (§1) treatment. Cell viability was determined by using CellTiter-Glo (Promega #G7571) according to the manufacturer’s instructions, measuring luminescence using an Envision plate-reader (PerkinElmer Inc.). Dose-response curves were generated using non-linear regression curve fit in GraphPad Prism 9.2.0(GraphPad Software).
(§2) Cellular target engagement assays
(§3) After 6 hours treatment, cells were pelleted, washed with PBS once and lysed with IP lysis buffer (25mMTris-HCl pH 7.4, 150mM NaCl, 1 mM EDTA, 1% NP-40 and 5% glycerol) (Thermo Fisher Scientific, Cat#87788) containing protease/phosphatase inhibitor cocktail (Roche). The protein concentrations were measured by BCA analysis (Pierce). Cell lysates were incubated with 1 μM of biotin conjugated probe (bio-Osimertinib or bio-ZNL-0013) at 4 ℃ overnight, and incubated for 3 more hours at room temperature. Lysates with probe were then incubated with streptavidin beads (Thermo Fisher, #20349) for 2 hours at 4 ℃. The protein-probe complexes on the beads were then subjected to immunoblotting.
(§4) H3255 cells were plated with 6.5x10^6 per condition in fresh media in 15 cm plates and treated the 80% confluency for 2 hours with DMSO or 2.5 μM of ZNL-0056. To harvest cells, plates were washed 3 times with cold PBS, then collected by scraping into 4 mL of cold PBS containing protease and phosphatase inhibitors. Cells were pelleted by centrifugation at 1350 g at 4 ℃ for 5 minutes and immediately frozen in liquid nitrogen. The frozen samples were sent to ActivX Biosciences (La Jolla, CA) for the remainder of the KiNativ profiling experiment4.
(§5) Protein expression and purification
(§6) Human EGFR kinase domain (residues 696-1022) with T790M and V948R mutations was cloned with an N-terminal, protease cleavable His -GST tag. Recombinant protein was expressed in SF9 insect cells using baculovirus generated from the pFastBac system (Thermo Fisher) .
(§7) Briefly, cells at a density of ~2x10^6 cells/mL were infected with 1% (v/v) virus stock and grown for ~72 hours before harvesting and freezing the cell pellet . Infected cells were lysed in buffer A (50 mM Tris pH 8.0, 500 mM NaCl, 5% glycerol, 0.5 mM Tris(2-carboxyethyl)phosphine [TCEP]), ultracentrifuged at >200,000 rcf for 1 h, and the supernatant flo wed through Ni-NTA resin by gravity. The resin was washed with buffer A supplemented with 40 mM imidazole by […]

TAO2 = test system: T2, TAO2; conditions: 2.5 µM; Lys2; DVKAGNILLSEPGLVK
T2 construct: purchased ActivX Biosciences (KiNativ)
Procedure: as §1, §2, §3, §4, §5, §6, §7

CK1g1, CK1g2, CK1g3 = conditions: 2.5 µM; ATP Loop; KIGCGNFGELR
Procedure: as §1, §2, §3, §4, §5, §6, §7

AurA, AurB, AurC = conditions: 2.5 µM; ATP Loop; GKFGNVYLAR
Procedure: as §1, §2, §3, §4, §5, §6, §7

CDK5 = test system: T3, CDK5; conditions: 2.5 µM
T3 construct: purchased ActivX Biosciences (KiNativ)
Procedure: as §1, §2, §3, §4, §5, §6, §7

PIP5K3 = test system: T4, PIP5K3; conditions: 2.5 µM; ATP; GGKSGAAFYATEDDRFILK
T4 construct: purchased ActivX Biosciences (KiNativ)
Procedure: as §1, §2, §3, §4, §5, §6, §7

SYK = test system: T5, SYK; conditions: 2.5 µM
T5 construct: purchased ActivX Biosciences (KiNativ)
Procedure: as §1, §2, §3, §4, §5, §6, §7

CaMKK2 = test system: T6, CaMKK2; conditions: 2.5 µM
T6 construct: purchased ActivX Biosciences (KiNativ)
Procedure: as §1, §2, §3, §4, §5, §6, §7

PKR = test system: T7, PKR; conditions: 2.5 µM
T7 construct: purchased ActivX Biosciences (KiNativ)
Procedure: as §1, §2, §3, §4, §5, §6, §7

MAP3K4 = test system: T8, MAP3K4; conditions: 2.5 µM
T8 construct: purchased ActivX Biosciences (KiNativ)
Procedure: as §1, §2, §3, §4, §5, §6, §7

PKN2 = test system: T9, PKN2; conditions: 2.5 µM; Lys2; DLKLDNLLLDTEGFVK
T9 construct: purchased ActivX Biosciences (KiNativ)
Procedure: as §1, §2, §3, §4, §5, §6, §7

MARK2 = test system: T10, MARK2; conditions: 2.5 µM; Lys1; EVAVKIIDKTQLNSSSLQK
T10 construct: purchased ActivX Biosciences (KiNativ)
Procedure: as §1, §2, §3, §4, §5, §6, §7

PIP4K2C = test system: T11, PIP4K2C; conditions: 2.5 µM, ATP
T11 construct: purchased ActivX Biosciences (KiNativ)
Procedure: as §1, §2, §3, §4, §5, §6, §7

Wnk1, Wnk2, Wnk4 = conditions: 2.5 µM; Activation Loop; IGDLGLATLKR
Procedure: as §1, §2, §3, §4, §5, §6, §7

CaMK2d = test system: T12, CaMK2d; conditions: 2.5 µM; Lys1; IPTGQEYAAKIINTKK
T12 construct: purchased ActivX Biosciences (KiNativ)
Procedure: as §1, §2, §3, §4, §5, §6, §7

DRAK1, DRAK2 = conditions: 2.5 µM; ATP Loop; GKFAVVR
Procedure: as §1, §2, §3, §4, §5, §6, §7

Erk5 = test system: T13, Erk5; conditions: 2.5 µM; Lys2; DLKPSNLLVNENCELK
T13 construct: purchased ActivX Biosciences (KiNativ)
Procedure: as §1, §2, §3, §4, §5, §6, §7

PLK1 = test system: T14, PLK1; conditions: 2.5 µM
T14 construct: purchased ActivX Biosciences (KiNativ)
Procedure: as §1, §2, §3, §4, §5, §6, §7

MAP4K3 = test system: T15, MAP4K3; conditions: 2.5 µM
T15 construct: purchased ActivX Biosciences (KiNativ)
Procedure: as §1, §2, §3, §4, §5, §6, §7

STLK5 = test system: T16, STLK5; conditions: 2.5 µM
T16 construct: purchased ActivX Biosciences (KiNativ)
Procedure: as §1, §2, §3, §4, §5, §6, §7

AMPKa1, AMPKa2 = conditions: 2.5 µM
Procedure: as §1, §2, §3, §4, §5, §6, §7

MST1, MST2 = conditions: 2.5 µM; Lys2; DIKAGNILLNTEGHAK
Procedure: as §1, §2, §3, §4, §5, §6, §7

PIK3CB = test system: T17, PIK3CB; conditions: 2.5 µM; ATP; VFGEDSVGVIFKNGDDLRQDMLTLQMLR
T17 construct: purchased ActivX Biosciences (KiNativ)
Procedure: as §1, §2, §3, §4, §5, §6, §7

[1] = Activation Loop, IGDFGLVTSLKNDGKR
[2] = Activation Loop, YSVKVLPWLSPEVLQQNLQGYDAK

SMILES	Inhibition (CK1g3) [%]	Inhibition (TAO2) [%]	Inhibition (CK1g1, CK1g2, CK1g3) [%]	Inhibition (AurA, AurB, AurC) [%]	Inhibition (CDK5; Lys1, NRETHEIVALKR) [%]	Inhibition (CDK5; Lys2, DLKPQNLLINR) [%]	Inhibition (PIP5K3) [%]	Inhibition (SYK; Activation Loop, ISDFGLSKALR) [%]	Inhibition (SYK; Lys1, TVAVKILK) [%]	Inhibition (CaMKK2; Lys1, LAYNENDNTYYAMKVLSK) [%]	Inhibition (CaMKK2; Lys2, DIKPSNLLVGEDGHIK) [%]	Inhibition (PKR; [1]) [%]	Inhibition (PKR; Lys2, DLKPSNIFLVDTK) [%]	Inhibition (MAP3K4; Lys1, VYTCISVDTGELMAMKEIR) [%]	Inhibition (MAP3K4; Lys2, DIKGANIFLTSSGLIK) [%]	Inhibition (PKN2) [%]	Inhibition (MARK2) [%]	Inhibition (PIP4K2C; TLVIKEVSSEDIADMHSNLSNYHQYIVK) [%]	Inhibition (PIP4K2C; VKELPTLKDMDFLNK) [%]	Inhibition (Wnk1, Wnk2, Wnk4) [%]	further results
C=CC(=O)Nc1cc(Nc2nccc(-c3cn(C)c4ccccc34)n2)c(OC)cc1N(C)CCN(C)C [Osimertinib, osimertinib, reference compound]	7.1	8.2	-14.3	20.5	-40.7	26.2	49.0	-19.6	-0.9	73.3	60.8	-12.9	6.2	0.9	-3.4	9.8	7.8	59.0	55.5	-32.3	Inhibition (CaMK2d): -3.1%; Inhibition (DRAK1, DRAK2): 13.6%; Inhibition (Erk5): -4.1%; Inhibition (PLK1; Lys1, CFEISDADTKEVFAGKIVPK): 9.6%; Inhibition (PLK1; Lys2, DLKLGNLFLNEDLEVK): 25.0%; Inhibition (MAP4K3; Lys1, NVNTGELAAIKVIK): -4.2%; Inhibition (MAP4K3; Lys2, DIKGANILLTDNGHVK): 3.2%; Inhibition (STLK5; [2]): 2.8%; Inhibition (STLK5; Lys2, SVKASHILISVDGK): 3.2%; Inhibition (AMPKa1, AMPKa2; Lys1, VAVKILNR): 6.4%; Inhibition (AMPKa1, AMPKa2; Lys2, DLKPENVLLDAHMNAK): -33.2%; Inhibition (MST1, MST2): 17.9%; Inhibition (PIK3CB): -1.4%
C=CC(=O)Nc1cc(C(=O)Nc2nc3cccc(C)c3n2[C@@H]2CCCCN(C(=O)C=C)C2)cs1 [ZNL-0056]	18.0	-4.5	13.6	2.2	-65.5	18.0	20.7	4.4	4.7	74.6	73.1	11.7	0.451	16.4	-19.0	22.0	25.2	60.9	53.5	1.3	Inhibition (CaMK2d): -4.1%; Inhibition (DRAK1, DRAK2): 46.6%; Inhibition (Erk5): -18.2%; Inhibition (PLK1; Lys1, CFEISDADTKEVFAGKIVPK): 11.9%; Inhibition (PLK1; Lys2, DLKLGNLFLNEDLEVK): -1.2%; Inhibition (MAP4K3; Lys1, NVNTGELAAIKVIK): 9.4%; Inhibition (MAP4K3; Lys2, DIKGANILLTDNGHVK): 21.1%; Inhibition (STLK5; [2]): -9.2%; Inhibition (STLK5; Lys2, SVKASHILISVDGK): -41.2%; Inhibition (AMPKa1, AMPKa2; Lys1, VAVKILNR): 20.9%; Inhibition (AMPKa1, AMPKa2; Lys2, DLKPENVLLDAHMNAK): 9.7%; Inhibition (MST1, MST2): 16.1%; Inhibition (PIK3CB): -22.3%
